Values belong to the compound of their own block, whether it stands above or below them. *1 amine or outer side, *2 acyl side, *3 side chain or, on linkers, in order; H or OH if unused. Where a SMILES comes first, the peptide text is derived from it. Bridges are numbered along the chain shown (N, C = ends). [ ]: non-standard residue; d: D form. 2Nal = N[C@@H](Cc1ccc2ccccc2c1)C(=O)O; AEF = NCCOc1ccc(C[C@H](N)C(=O)O)cc1; X1 = O=C(Cc1ccc(CN[*:1])cc1)[*:2]; 3Pal = N[C@@H](Cc1cccnc1)C(=O)O; αMeL = CC(C)C[C@](C)(N)C(=O)O; Dab = NCC[C@H](N)C(=O)O
Legend:
[1] = Peptide stability in simulated gastric fluid (SGF); format: in vitro ADME; conditions: pig, simulated gastric fluid (SGF) with porcine pepsin, 37 °C, pH 1.2, porcine pepsin 3.2 g/L
Experimental: SGF was prepared by dissolving sodium chloride (0.2 g) in 50 mL of water. A volume of 0.7 mL of 10 M HCl was added to adjust the pH of the solution to 1.2 and the volume made up to 100 mL with water. […] SIF was prepared by dissolving monobasic potassium phosphate (0.68 g) in 50 mL of water and adjusting the pH to 6.8 with 1 M NaOH. The volume was subsequently made up to 100 mL with water. 200 mg porcine pancreatin (P1625, Sigma Aldrich) was gently dissolved into 20 mL preheated (37 °C) solution (10 g/L) immediately prior to the incubation.
The incubation was performed at 37 °C with gentle shaking. […] After the last timepoint, the sampling plate was mixed for 10 min on a shaking table and centrifuged 10 min at 2200 g. 70 µL resulting supernatant was diluted with 150 µL water, mixed and centrifugated before analysis by liquid chromatography high resolution mass spectrometry. […] Percent remaining at each timepoint was calculated relative to timepoint zero based on absolute peak areas.
Compounds with a SGF stability (after 4 h) above 70% are considered highly SGF stable. […] Table 3-4: SGF data

[2] = Peptide stability in simulated intestinal fluid (SIF); format: in vitro ADME; conditions: pig, simulated intestinal fluid (SIF) with porcine pancreatin, 37 °C, pH 6.8, porcine pancreatin 10 g/L, 10 µM; for remaining at 4 h, 10 µM: read-out: SIF (% remaining 4 h)
Procedure, shortened: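 Peptides were incubated at 37 °C with gentle shaking in pH 6.8 potassium phosphate SIF containing porcine pancreatin (10 g/L). Supernatants were analysed by LC-HRMS. Percent remaining at each timepoint, including 4 h, was calculated relative to time zero from absolute peak areas.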

human IL-23R = target: T1, human IL-23R (Homo sapiens, UniProt Q5VWK5); experiment: biochemical
T1 sequence (Q5VWK5 22-629): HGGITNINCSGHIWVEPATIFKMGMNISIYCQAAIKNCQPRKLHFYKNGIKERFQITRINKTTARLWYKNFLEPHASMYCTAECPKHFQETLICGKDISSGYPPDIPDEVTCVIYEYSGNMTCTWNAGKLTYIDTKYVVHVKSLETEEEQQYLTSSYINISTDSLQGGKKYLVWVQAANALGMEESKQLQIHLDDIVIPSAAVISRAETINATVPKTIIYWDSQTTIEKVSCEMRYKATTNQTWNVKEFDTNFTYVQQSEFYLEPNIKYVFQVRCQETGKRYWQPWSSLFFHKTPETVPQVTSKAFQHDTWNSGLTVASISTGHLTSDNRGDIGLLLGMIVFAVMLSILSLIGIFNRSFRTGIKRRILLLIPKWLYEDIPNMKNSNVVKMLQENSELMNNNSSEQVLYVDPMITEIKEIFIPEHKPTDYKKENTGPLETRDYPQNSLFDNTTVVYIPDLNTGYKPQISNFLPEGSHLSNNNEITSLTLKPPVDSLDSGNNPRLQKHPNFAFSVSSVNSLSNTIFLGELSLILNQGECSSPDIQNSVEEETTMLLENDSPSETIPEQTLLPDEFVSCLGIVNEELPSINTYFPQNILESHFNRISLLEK
Procedure, shortened: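 BRET displacement of a TAMRA-labelled reference compound from N-terminal Nanoluc-IL-23R fusion protein in membranes from stably transfected HEK293 cells. Incubation 2 h at room temperature, then Nanoluc substrate was added and the TAMRA/Nanoluc ratio read. IC50 and maximal displacement came from 4-parameter logistic fits.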

[3] = system: porcine pepsin (P7125, Sigma Aldrich); experiment: SGF: sodium chloride, HCl, pH 1.2, with porcine pepsin (3.2 g/L); conditions: 37 °C, up to 4 hours

Compound: CNC(=O)[C@H](Cc1cccnc1)NC(=O)[C@H](COC)NC(=O)[C@@H]1CCC(=O)NCc2ccc(cc2)CC(=O)N[C@@H](CO)C(=O)N[C@H]2CCC(=O)NCC[C@H](NC(=O)[C@H](CCC(N)=O)NC(=O)[C@H](Cc3c[nH]c4ccccc34)NC2=O)C(=O)N[C@@H](Cc2ccc(OCCN)cc2)C(=O)N[C@@H](Cc2ccc3ccccc3c2)C(=O)N[C@@](C)(CC(C)C)C(=O)N1 [Compound 37, [4-Aminomethyl-phenylacetyl](1c)*SE(2c)WQ[Dab](2c)[Y(2-aminoethoxy)][2-Nal][2-Me-Leu]E(1 c)[Ser(OMe)][3-(3-Pyridyl)-Ala]-[NHMe]]
remaining at 1 h, 10 µM [1]: 97%
remaining at 1 h, 10 µM [2]: 78%
remaining at 4 h, 10 µM [2]: 69%
% displacement (hIL-23R binding) (human IL-23R): 95%
IC50 (human IL-23R): 0.013 nM

Compound: CNC(=O)[C@H](Cc1cccnc1)NC(=O)[C@@H](CO)NC(=O)[C@@H]1CCC(=O)NCc2ccc(cc2)CC(=O)N[C@@H](CO)C(=O)N[C@H]2CCC(=O)NCC[C@H](NC(=O)[C@H](CCC(N)=O)NC(=O)[C@H](Cc3c[nH]c4ccccc34)NC2=O)C(=O)N[C@@H](Cc2ccc(OCCN)cc2)C(=O)N[C@@H](Cc2ccc3ccccc3c2)C(=O)N[C@@](C)(CC(C)C)C(=O)N1 [Compound 38, [4-Aminomethyl-phenylacetyl](1c)*SE(2c)WQ[Dab](2c)[Y(2-aminoethoxy)][2-Nal][2-Me-Leu]E(1c)[{d}S][3-(3-Pyridyl)-Ala]-[NHMe]]
remaining at 4 h, 10 µM [1]: 91%
remaining at 4 h, 10 µM [2]: 65%
% displacement (hIL-23R binding) (human IL-23R): 102%
IC50 (human IL-23R): 0.066 nM

Compound: CNC(=O)[C@H](Cc1cccnc1)NC(=O)[C@](C)(CO)NC(=O)[C@@H]1CCC(=O)NCc2ccc(cc2)CC(=O)N[C@@H](CO)C(=O)N[C@H]2CCC(=O)NCC[C@H](NC(=O)[C@H](CCC(N)=O)NC(=O)[C@H](Cc3c[nH]c4ccccc34)NC2=O)C(=O)N[C@@H](Cc2ccc(OCCN)cc2)C(=O)N[C@@H](Cc2ccc3ccccc3c2)C(=O)N[C@@](C)(CC(C)C)C(=O)N1 [Compound 39, [4-Aminomethyl-phenylacetyl](1c)*SE(2c)WQ[Dab](2c)[Y(2-aminoethoxy)][2-Nal][2-Me-Leu]E(1c)[2-Me-Ser][3-(3-Pyridyl)-Ala]-[NHMe]]
remaining at 1 h, 10 µM [1]: 99%
remaining at 1 h, 10 µM [2]: 100%
Emax (human IL-23R; read-out: % displacement (hIL-23R binding)): 99%

Compound: CNC(=O)[C@H](Cc1cccnc1)NC(=O)[C@H](CCN)NC(=O)[C@@H]1CCC(=O)NCc2ccc(cc2)CC(=O)N[C@@H](C)C(=O)N[C@H]2CCC(=O)NCC[C@H](NC(=O)[C@H](CCC(N)=O)NC(=O)[C@H](Cc3c[nH]c4ccccc34)NC2=O)C(=O)N[C@@H](Cc2c[nH]c3ncccc23)C(=O)N[C@@H](Cc2ccc3ccccc3c2)C(=O)NC(C)(C)C(=O)N1 [Compound 43, [4-Aminomethyl-phenylacetyl](1c)*AE(2c)WQ[Dab](2c)[7-AzaTrp][2-Nal][Aib]E(1c)[Dab][3-(3-Pyridyl)-Ala]-[NHMe]]
remaining at 4 h, 10 µM [1]: 98%
remaining at 4 h, 10 µM [2]: 92%
% displacement (hIL-23R binding) (human IL-23R): 101%
IC50 (human IL-23R): 0.048 nM

Compound: H-EC(4a)WLC(5a)YYRNC(5a)NC(4a)M-[NH2]
not cleaved [3]: 99% remaining after 4 h

Compound: [4-Aminomethyl-phenylacetyl](1c)*FE(2c)WQ[Dab](2c)[Y(2-aminoethoxy)][2-Nal][2-Me-Leu]E(1c)[Dab][3-(3-Pyridyl)-Ala]
not cleaved [3]: 101% remaining after 4 h

Compound: [4-Aminomethyl-phenylacetyl](1c)*SE(2c)WQ[Dab](2c)[Y(2-aminoethoxy)][2-Nal][2-Me-Leu]E(1c)[2-Me-Ser][3-(3-Pyridyl)-Ala]
not cleaved [3]: 96% remaining after 4 h

Compound: [4-Aminomethyl-phenylacetyl](1c)*SE(2c)WQ[Dab](2c)[Y(2-aminoethoxy)][2-Nal][2-Me-Leu]E(1c)[Dab]-[NH-(4-(pyridin-3-yl)butanyl)]
not cleaved [3]: 108% remaining after 4 h

Compound: [4-Aminomethyl-phenylacetyl](1c)*SE(2c)WQ[Dab](2c)[Y(2-aminoethoxy)][2-Nal][2-Me-Leu]E(1c)[Dab]H[3-(3-Pyridyl)-Ala]-[NH2]
not cleaved [3]: 93% remaining after 4 h

Compound: [4-Aminomethyl-phenylacetyl](1c)*SE(2c)WQ[Dab](2c)[Y(2-aminoethoxy)][2-Nal][2-Me-Leu]E(1c)[Dab][N-Me-3-(3-Pyridyl)-Ala]-[NH2]
not cleaved [3]: 103% remaining after 4 h

Compound: [4-Aminomethyl-phenylacetyl](1c)*SE(2c)WQ[Dab](2c)[Y(2-aminoethoxy)][2-Nal][2-Me-Leu]E(1c)[Dab][{d}3-(3-Pyridyl)-Ala]-[NH2]
not cleaved [3]: 105% remaining after 4 h

Compound: [4-Aminomethyl-phenylacetyl](1c)*SE(2c)WQ[Dab](2c)[Y(2-aminoethoxy)][2-Nal][2-Me-Leu]E(1c)[Ser(OMe)][3-(3-Pyridyl)-Ala]
not cleaved [3]: 102% remaining after 4 h

Compound: [4-Aminomethyl-phenylacetyl](1c)*SE(2c)WQ[Dab](2c)[Y(2-aminoethoxy)][2-Nal][2-Me-Leu]E(1c)[{d}S][3-(3-Pyridyl)-Ala]
not cleaved [3]: 91% remaining after 4 h

Next, values leading:

remaining at 1 h, 10 µM [1]: 89%
remaining at 4 h, 10 µM [2]: 80%
% displacement (hIL-23R binding) (human IL-23R): 100%
IC50 (human IL-23R): 0.019 nM
Compound: CNC(=O)[C@H](Cc1cccnc1)NC(=O)[C@H](CO)NC(=O)[C@@H]1CCC(=O)NCc2ccc(cc2)CC(=O)N[C@@H](C)C(=O)N[C@H]2CCC(=O)NCC[C@H](NC(=O)[C@H](CCC(N)=O)NC(=O)[C@H](Cc3c[nH]c4ccccc34)NC2=O)C(=O)N[C@@H](Cc2ccc(OCCN)cc2)C(=O)N[C@@H](Cc2ccc3ccccc3c2)C(=O)N[C@@](C)(CC(C)C)C(=O)N1 [Compound 40, [4-Aminomethyl-phenylacetyl](1c)*AE(2c)WQ[Dab](2c)[Y(2-aminoethoxy)][2-Nal][2-Me-Leu]E(1c)S[3-(3-Pyridyl)-Ala]-[NHMe]] ([X1]AEWQ[Dab][AEF][2Nal][αMeL]ES[3Pal]-NHMe; lactam 3-6, N-10)

not cleaved [3]: 94% remaining after 4 h
Compound: H-GC(1a)TC(2a)WEC(2a)WWLC(1a)S-[NH2]

not cleaved [3]: 95% remaining after 4 h
Compound: [4-Aminomethyl-phenylacetyl](1c)*SE(2c)WQ[Dab](2c)[Y(2-aminoethoxy)][2-Nal][2-Me-Leu]E(1c)H[3-(3-Pyridyl)-Ala]

not cleaved [3]: 93% remaining after 4 h
Compound: [4-Aminomethyl-phenylacetyl](1c)*SE(2c)WQ[Dab](2c)[Y(2-aminoethoxy)][2-Nal][2-Me-Leu]E(1c)Q[3-(3-Pyridyl)-Ala]

not cleaved [3]: 99% remaining after 4 h
Compound: [4-Aminomethyl-phenylacetyl](1c)*SE(2c)WQ[Dab](2c)[Y(2-aminoethoxy)][2-Nal][2-Me-Leu]E(1c)S[3-(3-Pyridyl)-Ala]

not cleaved [3]: 90% remaining after 4 h
Compound: [4-Aminomethyl-phenylacetyl](1c)*SE(2c)WQ[Dab](2c)[Y(2-aminoethoxy)][2-Nal][2-Me-Leu]E(1c)[Nle][3-(3-Pyridyl)-Ala]

not cleaved [3]: 103% remaining after 4 h
Compound: [4-Aminomethyl-phenylacetyl](1c)*SE(2c)WQ[Dab](2c)[Y(2-aminoethoxy)][2-Nal][2-Me-Leu]E(1c)[hSer][3-(3-Pyridyl)-Ala]

not cleaved [3]: 90% remaining after 4 h
Compound: [4-Aminomethyl-phenylacetyl](1c)*SE(2c)W[K(Ac)][Dab](2c)[Y(2-aminoethoxy)][2-Nal][2-Me-Leu]E(1c)[Dab][3-(3-Pyridyl)-Ala]

not cleaved [3]: 96% remaining after 4 h
Compound: [4-Aminomethyl-phenylacetyl](1c)*SE(2c)W[Q(pyrrolidin)][Dab](2c)[Y(2-aminoethoxy)][2-Nal][2-Me-Leu]E(1c)[Dab][3-(3-Pyridyl)-Ala]

not cleaved [3]: 100% remaining after 4 h
Compound: [Ac]-[Abu](16i)QTWQC(16i)[Y(2-aminoethoxy)]W[2-Me-Lys]ENG-[NH2]

Source: patent EP4471049A1 (Zealand Pharma A/S, priority 2023, dated 2024)
